Measurements as given in US10501460B2, “Heterocyclic compounds and uses thereof” (Plexxikon Inc., priority 2013, dated 2019).

Assays:
MV-4-11 = assay: Oncology cell growth assay MV-4-11 (CellTiter Glo, 72 hours); format: cell-based; details: Homo sapiens, MV4-11, 72 h; MV-4-11 cell growth inhibitory activity, 3d
How it was run: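 MV-4-11 cells (MLL-AF4 AML) exposed 72 h to 8-point 1:3 titration, top final 10 μM, 0.2% DMSO. CellTiter Glo luminescence as cell-number readout, normalized to DMSO controls; pIC50 from four-parameter fit.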

bromodomain = assay: Bromodomain cell assays of Example 40 (at least one of them); format: cell-based; details: in at least one of the bromodomain cell assays described in Example 40
How it was run: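 Growth inhibition: 3000 MV-4-11, MOLM-13, MM.1S or neuroblastoma cells/well got an 8-point 1:3 series from 10 μM top (0.2% DMSO) for 72 h, then CellTiter-Glo luminescence. Myc reporter: MV-4-11 with E-box firefly luciferase, 24 h exposure, One-Glo luminescence plus CellTiter-Fluo cell count. pIC50 from four-parameter fit.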

BRD4-BD1 (44-164) = molecular target: T1, BRD4-BD1 (44-164) (Homo sapiens, UniProt O60885); assay: Alphascreen binding assay BRD4-BD1 (BRD4 biochemical inhibitory activity); details: read-out: Biochemical activity (IC50 μM) BRD4(1) H4
T1 construct: BRD4-BD1 (44-164); made in house; host or cells: E. coli BL21-CodonPlus (DE3)
How it was run: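 His-tagged human BRD4-BD1 (44-164), E. coli-expressed, incubated 1 h at room temperature with compound and biotinylated tetra-acetylated histone H4 (1-21) peptide in HEPES pH 7.5 buffer with NaCl, BSA, Triton X-100 and DTT. AlphaScreen nickel-chelate/streptavidin beads (7.5 μg/ml final) added, read after 30 min. pIC50 from four-parameter fit of control-normalized signal.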

Cc1noc(C)c1-c1cnc2c(C#CCF)cn(S(=O)(=O)c3ccccc3)c2c1 [P-0157, 4-[1-(benzenesulfonyl)-3-(3-fluoroprop-1-ynyl)pyrrolo[3,2-b]pyridin-6-yl]-3,5-dimethyl-isoxazole]
IC50 (MV-4-11): ≤ 1 µM | IC50 (bromodomain): < 10 µM | IC50 (BRD4-BD1 (44-164)): ≤ 1 µM

Cc1cc(-c2cn(S(=O)(=O)c3ccccc3)c3cc(-c4c(C)noc4C)cnc23)[nH]n1 [P-0164, 4-[1-(benzenesulfonyl)-3-(3-methyl-1H-pyrazol-5-yl)pyrrolo[3,2-b]pyridin-6-yl]-3,5-dimethyl-isoxazole]
IC50 (MV-4-11): ≤ 1 µM | IC50 (bromodomain): < 10 µM | IC50 (BRD4-BD1 (44-164)): ≤ 1 µM

Cc1noc(C)c1-c1cnc2c(CCC(=O)O)cn(S(=O)(=O)c3ccccc3)c2c1 [P-0174, 3-[1-(benzenesulfonyl)-6-(3,5-dimethylisoxazol-4-yl)pyrrolo[3,2-b]pyridin-3-yl]propanoic acid]
IC50 (MV-4-11): 1 to 10 µM | IC50 (bromodomain): < 10 µM | IC50 (BRD4-BD1 (44-164)): 1 to 10 µM

Cc1noc(C)c1-c1cnc2c(c1)c(S(=O)(=O)c1ccccc1)cn2C1COC1 [P-0179, 4-[3-(benzenesulfonyl)-1-(oxetan-3-yl)pyrrolo[2,3-b]pyridin-5-yl]-3,5-dimethyl-isoxazole]
IC50 (MV-4-11): 1 to 10 µM | IC50 (bromodomain): < 10 µM | IC50 (BRD4-BD1 (44-164)): 1 to 10 µM

Cc1noc(C)c1-c1cnc2c(c1)c(Sc1ccccc1)cn2C1CCOC1 (stereo not drawn) [P-0180, 3,5-dimethyl-4-(3-phenylsulfanyl-1-tetrahydrofuran-3-yl-pyrrolo[2,3-b]pyridin-5-yl)isoxazole]
IC50 (MV-4-11): 1 to 10 µM | IC50 (bromodomain): < 10 µM | IC50 (BRD4-BD1 (44-164)): 1 to 10 µM

Cc1noc(C)c1-c1cnc2c(c1)c(S(=O)(=O)c1ccccc1)cn2C1CCOC1 (stereo not drawn) [P-0181, 4-[3-(benzenesulfonyl)-1-tetrahydrofuran-3-yl-pyrrolo[2,3-b]pyridin-5-yl]-3,5-dimethyl-isoxazole]
IC50 (MV-4-11): ≤ 1 µM | IC50 (bromodomain): < 10 µM | IC50 (BRD4-BD1 (44-164)): 1 to 10 µM

Cc1noc(C)c1-c1cnc2c(c1)c(Sc1ccccc1)cn2C1CCOCC1 [P-0182, 3,5-dimethyl-4-(3-phenylsulfanyl-1-tetrahydropyran-4-yl-pyrrolo[2,3-b]pyridin-5-yl)isoxazole]
IC50 (MV-4-11): ≤ 1 µM | IC50 (bromodomain): < 10 µM | IC50 (BRD4-BD1 (44-164)): 1 to 10 µM

Cc1noc(C)c1-c1cnc2c(c1)c(S(=O)(=O)c1ccccc1)cn2C1CCOCC1 [P-0183, 4-[3-(benzenesulfonyl)-1-tetrahydropyran-4-yl-pyrrolo[2,3-b]pyridin-5-yl]-3,5-dimethyl-isoxazole]
IC50 (MV-4-11): ≤ 1 µM | IC50 (bromodomain): < 10 µM | IC50 (BRD4-BD1 (44-164)): 1 to 10 µM

Cc1nc(-c2cn(S(=O)(=O)c3ccccc3)c3cc(-c4c(C)noc4C)cnc23)cs1 [P-0191, 4-[1-(benzenesulfonyl)-3-(2-methylthiazol-4-yl)pyrrolo[3,2-b]pyridin-6-yl]-3,5-dimethyl-isoxazole]
IC50 (MV-4-11): ≤ 1 µM | IC50 (bromodomain): < 10 µM | IC50 (BRD4-BD1 (44-164)): 1 to 10 µM

[2H]C([2H])(C1CCC(F)(F)CC1)n1cc(-c2cnn(C3CC3)c2)c2ncc(-c3c(C)noc3C)cc21 [P-0220, 4-[3-(1-cyclopropylpyrazol-4-yl)-1-[dideuterio-(4,4-difluorocyclohexyl)methyl]pyrrolo[3,2-b]pyridin-6-yl]-3,5-dimethyl-isoxazole]
IC50 (MV-4-11): ≤ 1 µM | IC50 (bromodomain): < 10 µM | IC50 (BRD4-BD1 (44-164)): ≤ 1 µM
